Experiments:
Format in all cases: in vivo
Botryosphaeria dothidea [1] = assay: In-vitro inoculation of sorbitol-soaked mature "Gala" apple fruits with ring rot fungus
Description: (§1) A fungus block of Botrvosphaeria dothidea was inoculated in a potato dextrose agar (PDA) medium by a puncher having a diameter of 5 mm, and inverted and cultured in the dark at 28° C. for 10 days.
S41: An in-vitro inoculation method was adopted for identifying disease resistance of the “Gala” apple fruits, and 6 treatments were set as follows:
S42: Surfaces of mature “Gala” fruits (within 120 days after flowering) were disinfected with 0.1% of sodium hypochlorite; and the fruits were fully washed with sterilized deionized water, aired and stood at 25° C. for 12 h for later use.
S43: The “Gala” fruits of the same size were selected and respectively soaked in the sterilized deionized water, the sorbitol solution of 100 mM, the sorbitol solution of 150 mM, the sorbitol solution of 200 mM and the sorbitol solution of 300 mM; and 10 fruits were treated in each treatment. The apples were taken out within 3 h after treatment; surface liquid was wiped up; middle parts of the surfaces of the apple fruits were punctured by sterilized toothpicks at a depth of 5 mm; 0.02 g of Botryosphaeria dothidea hyphae having vigorous and consistent growth within 10 days was added into the punctured parts; and the single pathogenic fungus inoculation treatment was taken as control. After inoculation, the “Gala” fruits were cultured in a thermostatic incubator at 28° C. in the dark. A disease spot diameter served as a measurement standard of the incidence degree of the apple fruits; diameters of 5 points of each disease spot were measured; and the mean value was taken as the result. Since 3 d after treatment, disease spot diameters of the apple fruits in different treatments were photographed and recorded every day; and the diameters were continuously recorded for 4 d. A significance level of disease spot size differences among the treatment groups was calculated according to analysis of variance.

Botryosphaeria dothidea [2] = assay: In-vitro inoculation of sorbitol-soaked mature "Golden delicious" apple fruits with ring rot fungus
Description: as §1
S51: An in-vitro inoculation method was adopted for identifying disease resistance of the “Golden delicious” apple fruits; and 6 treatments were set as follows:
S52: Surfaces of mature “Golden delicious” fruits (within 135 days after flowering) were disinfected with 0.1% of sodium hypochlorite; and the fruits were fully washed with sterilized deionized water, aired and stood at 25° C. for 12 h for later use.
S53: The “Golden delicious” fruits of the same size were selected and respectively soaked in the sterilized deionized water, the sorbitol solution of 100 mM, the sorbitol solution of 150 mM, the sorbitol solution of 200 mM and the sorbitol solution of 300 mM; and 10 fruits were treated in each treatment. The apples were taken out within 3 h after treatment; surface liquid was wiped up; middle parts of the surfaces of the apple fruits were punctured by sterilized toothpicks at a depth of 5 mm; 0.02 g of Botryosphaeria dothidea hyphae having vigorous and consistent growth within 10 days was added into the punctured parts; and the single pathogenic fungus inoculation treatment was taken as control. After inoculation, the “Golden delicious” fruits were cultured in a thermostatic incubator at 28° C. in the dark. A disease spot diameter served as a measurement standard of the incidence degree of the apple fruits; diameters of 5 points of each disease spot were measured; and the mean value was taken as the result. Since 3 d after treatment, disease spot diameters of the apple fruits in different treatments were photographed and recorded every day; and the diameters were continuously recorded for 4 d. A significance level of disease spot size differences among the treatment groups was calculated according to analysis of variance.

Botryosphaeria dothidea [3] = assay: In-vitro inoculation of sorbitol-soaked mature "Red delicious" apple fruits with ring rot fungus
Description: as §1
S21: An in-vitro inoculation method was adopted for identifying disease resistance of the “Red delicious” apple fruits; and 6 treatments were set as follows:
S22: Surfaces of mature “Red delicious” fruits (within 140 days after flowering) were disinfected with 0.1% of sodium hypochlorite; and the fruits were fully washed with sterilized deionized water, aired and stood at 25° C. for 12 h for later use.
S23: The “Red delicious” fruits of the same size were selected and respectively soaked in the sterilized deionized water, the sorbitol solution of 100 mM, the sorbitol solution of 150 mM, the sorbitol solution of 200 mM and the sorbitol solution of 300 mM; and 10 fruits were treated in each treatment. The apples were taken out within 3 h after treatment; surface liquid was wiped up; middle parts of the surfaces of the apple fruits were punctured by sterilized toothpicks at a depth of 5 mm: 0.02 g of Botryosphaeria. dothidea hyphae having vigorous and consistent growth within 10 days was added into the punctured parts; and the single pathogenic fungus inoculation treatment was taken as control. After inoculation, the “Red delicious” fruits were cultured in a thermostatic incubator at 28° C. in the dark. A disease spot diameter served as a measurement standard of the incidence degree of the apple fruits; diameters of 5 points of each disease spot were measured; and the mean value was taken as the result. Since 3 d after treatment, disease spot diameters of the apple fruits in different treatments were photographed and recorded every day; and the diameters were continuously recorded for 4 d. A significance level of disease spot size differences among the treatment groups was calculated according to analysis of variance.

Botryosphaeria dothidea [4] = assay: In-vitro inoculation of sorbitol-soaked mature "Fuji" apple fruits with ring rot fungus
Description: as §1
S31: An in-vitro inoculation method was adopted for identifying disease resistance of the “Fuji” apple fruits; and 6 treatments were set as follows:
S32: Surfaces of mature “Fuji” fruits (within 180 days after flowering) were disinfected with 0.1% of sodium hypochlorite; and the fruits were fully washed with sterilized deionized water, aired and stood at 25° C. for 12 h for later use.
S33: The “Fuji” fruits of the same size were selected and respectively soaked in the sterilized deionized water, the sorbitol solution of 100 mM, the sorbitol solution of 150 mM, the sorbitol solution of 200 mM and the sorbitol solution of 300 mM; and 10 fruits were treated in each treatment. The apples were taken out within 3 h after treatment; surface liquid was wiped up; middle parts of the surfaces of the apple fruits were punctured by sterilized toothpicks at a depth of 5 mm; 0.02 g of Botryosphaeria dothidea hyphae having vigorous and consistent growth within 10 days was added into the punctured parts; and the single pathogenic fungus inoculation treatment was taken as control. After inoculation, the “Fuji” fruits were cultured in a thermostatic incubator at 28° C. in the dark. A disease spot diameter served as a measurement standard of the incidence degree of the apple fruits; diameters of 5 points of each disease spot were measured; and the mean value was taken as the result. Since 3 d after treatment, disease spot diameters of the apple fruits in different treatments were photographed and recorded every day; and the diameters were continuously recorded for 4 d. A significance level of disease spot size differences among the treatment groups was calculated according to analysis of variance.

[5] = sorbitol solution of 200 mM, soak 3 h, 6 d after inoculation
[6] = sorbitol solution of 300 mM, 6 d after inoculation
[7] = sorbitol solution soak 3 h, 3-6 d after inoculation

OC[C@@H](O)[C@@H](O)[C@H](O)[C@@H](O)CO [sorbitol, D-Sorbitol]
optimum treatment concentration (Botryosphaeria dothidea [1]): 200 mM
average disease spot diameter (Botryosphaeria dothidea [1]; [5]): 1.89 cm
disease spot diameter versus 200 mM treatment (Botryosphaeria dothidea [1]; [6]): no significant difference
increase rate of the disease spot diameters compared with the control (Botryosphaeria dothidea [1]; [7]): significantly decreased
optimum treatment concentration (Botryosphaeria dothidea [2]): 200 mM
average disease spot diameter (Botryosphaeria dothidea [2]; [5]): 1.70 cm
disease spot diameter versus 200 mM treatment (Botryosphaeria dothidea [2]; [6]): no significant difference
increase rate of the disease spot diameters compared with the control (Botryosphaeria dothidea [2]; [7]): significantly decreased
optimum treatment concentration (Botryosphaeria dothidea [3]): 200 mM
disease spot diameter (Botryosphaeria dothidea [3]; [5]): 0.76 cm
disease spot diameter versus 200 mM treatment (Botryosphaeria dothidea [3]; [6]): no significant difference
increase rate of the disease spot diameters compared with the control (Botryosphaeria dothidea [3]; [7]): significantly decreased
optimum treatment concentration (Botryosphaeria dothidea [4]): 150 mM
disease spot diameter (Botryosphaeria dothidea [4]; sorbitol solution of 150 mM, soak 3 h, 6 d after inoculation): 1.86 cm
disease spot diameter versus 150 mM treatment (Botryosphaeria dothidea [4]; sorbitol solution of 200 mM, 6 d after inoculation): no significant difference
disease spot diameter versus 150 mM treatment (Botryosphaeria dothidea [4]; [6]): no significant difference
increase rate of the disease spot diameters compared with the control (Botryosphaeria dothidea [4]; [7]): significantly decreased

— patent US20230276817A1, “PREPARATION AND METHOD FOR IMPROVING RiNG ROT RESISTANCE OF APPLE FRUITS” (Shandong Institute of Pomology, priority 2022, published 2023)
